From the NIST ThermoML archive (doi:10.1016/j.jct.2011.01.017)
Numbers after ± are expanded uncertainties.

Settings: Liquid, DSC

SMILES: CCCCCCCC/C=C\CCCCCCCC(=O)OCC [ethyl (Z)-9-octadeceneoate]
- vapor or sublimation pressure (486.64 K): 1.33 ± 0.16 kPa
- vapor or sublimation pressure (500.98 K): 2.67 ± 0.17 kPa
- vapor or sublimation pressure (508.03 K): 4 ± 0.21 kPa
- vapor or sublimation pressure (514.61 K): 5.33 ± 0.2 kPa
- vapor or sublimation pressure (523.69 K): 6.67 ± 0.2 kPa
- vapor or sublimation pressure (528.56 K): 8 ± 0.21 kPa
- vapor or sublimation pressure (536.83 K): 9.33 ± 0.19 kPa

SMILES: CCCCCCCCCCCCCCCC(=O)OCC [ethyl hexadecanoate]
- vapor or sublimation pressure (464.49 K): 1.33 ± 0.15 kPa
- vapor or sublimation pressure (481.9 K): 2.67 ± 0.16 kPa
- vapor or sublimation pressure (495.23 K): 4 ± 0.17 kPa
- vapor or sublimation pressure (502.27 K): 5.33 ± 0.22 kPa
- vapor or sublimation pressure (508.1 K): 6.67 ± 0.25 kPa
- vapor or sublimation pressure (512.23 K): 8 ± 0.33 kPa
- vapor or sublimation pressure (515.13 K): 9.33 ± 0.39 kPa

SMILES: CCCCC/C=C\C/C=C\CCCCCCCC(=O)OCC [ethyl linoleate]
- vapor or sublimation pressure (486.64 K): 1.33 ± 0.16 kPa
- vapor or sublimation pressure (501.94 K): 2.67 ± 0.16 kPa
- vapor or sublimation pressure (510.65 K): 4 ± 0.21 kPa
- vapor or sublimation pressure (515.7 K): 5.33 ± 0.25 kPa
- vapor or sublimation pressure (520.91 K): 6.67 ± 0.23 kPa
- vapor or sublimation pressure (527.47 K): 8 ± 0.19 kPa
- vapor or sublimation pressure (537.39 K): 9.33 ± 0.18 kPa

SMILES: CCCCCCCCCCCCCC(=O)OCC [ethyl tetradecanoate]
- vapor or sublimation pressure (446.06 K): 1.33 ± 0.16 kPa
- vapor or sublimation pressure (460.03 K): 2.67 ± 0.17 kPa
- vapor or sublimation pressure (470.26 K): 4 ± 0.19 kPa
- vapor or sublimation pressure (476.75 K): 5.33 ± 0.24 kPa
- vapor or sublimation pressure (481.32 K): 6.67 ± 0.25 kPa
- vapor or sublimation pressure (487.01 K): 8 ± 0.24 kPa
- vapor or sublimation pressure (492.47 K): 9.33 ± 0.24 kPa

SMILES: CCCCCCCCCCCCCCCCCC(=O)OCC [ethyl octadecanoate]
- vapor or sublimation pressure (490.97 K): 1.33 ± 0.16 kPa
- vapor or sublimation pressure (505.55 K): 2.67 ± 0.17 kPa
- vapor or sublimation pressure (512.98 K): 4 ± 0.2 kPa
- vapor or sublimation pressure (520.56 K): 5.33 ± 0.23 kPa
- vapor or sublimation pressure (524.45 K): 6.67 ± 0.4 kPa
- vapor or sublimation pressure (525.78 K): 8 ± 0.81 kPa
- vapor or sublimation pressure (533.97 K): 9.33 ± 0.19 kPa

SMILES: CCCCCCCCCCCC(=O)OCC [ethyl dodecanoate]
- vapor or sublimation pressure (420.05 K): 1.33 ± 0.17 kPa
- vapor or sublimation pressure (432.13 K): 2.67 ± 0.17 kPa
- vapor or sublimation pressure (443.41 K): 4 ± 0.18 kPa
- vapor or sublimation pressure (451.05 K): 5.33 ± 0.21 kPa
- vapor or sublimation pressure (456.47 K): 6.67 ± 0.23 kPa
- vapor or sublimation pressure (462.44 K): 8 ± 0.29 kPa
- vapor or sublimation pressure (464.35 K): 9.33 ± 0.57 kPa
